Measurements from patent US20130217702A1 (Richter Gedeon Nyrt., priority 2010, published 2013).

What was measured:
[1] = biological target: T1, human recombinant bradykinin B1 receptor (Homo sapiens, UniProt P46663); assay: Human recombinant bradykinin B1 receptor competitive radioligand binding; settings: hB1 expressed in CHO cells, [3H]-[Des-Arg10] Kallidin radioligand; read-out: B1 binding
T1 construct: host or cells: CHO cells, clone hB1-A5
T1 sequence (P46663 1-353): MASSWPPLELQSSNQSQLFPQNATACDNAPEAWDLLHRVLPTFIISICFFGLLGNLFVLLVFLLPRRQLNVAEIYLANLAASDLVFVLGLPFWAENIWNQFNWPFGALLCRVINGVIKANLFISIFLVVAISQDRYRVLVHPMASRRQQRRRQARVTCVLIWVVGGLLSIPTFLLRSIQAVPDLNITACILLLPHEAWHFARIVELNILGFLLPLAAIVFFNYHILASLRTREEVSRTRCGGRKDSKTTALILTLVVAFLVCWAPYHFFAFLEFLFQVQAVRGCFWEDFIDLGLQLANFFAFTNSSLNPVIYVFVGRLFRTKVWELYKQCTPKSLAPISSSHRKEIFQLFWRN
Procedure: Assessment of Ligand Binding Affinity to B1 and B2 Receptors In Vitro by Competitive Radioligand Binding Assay
Binding assays were carried out on human recombinant bradykinin) receptors (expressed in CHO cells, hB1-A5) according to the Euroscreen Technical Data Sheet (Cat.No.:ES-091). 20 μg protein/tube was incubated with [3,4-prolyl-3,4-^3H(N)]-[Des-Arg^10] Kallidin as radioligand. Non specific binding was determined in the presence of 10 μM Lys-des-Arg^9-Bradykinin. The final incubation volume was 250 μl. Samples were incubated for 15 min. at 25° C. then were rapidly vacuum filtered through GF/B filters presoaked for at least 1 h in 0.5% PEI. Radioactivity was determined by liquid scintillation spectroscopy.
The ligand displacement by the compounds was determined using a minimum of seven concentrations in triplicate, and experiments were repeated at least two times. The specific radioligand binding is defined as the difference between total binding and the non-specific binding determined in the presence of an excess of unlabelled ligand. Results are expressed as a percent inhibition of specific binding obtained in the presence of RGH-478 or reference drugs. IC50 values (i.e. concentration of compound giving 50% inhibition of specific binding) were calculated from concentration-displacement curves by sigmoidal fitting using GraphPad Prism Software 4.0. Ki values (i.e. inhibition constants) were calculated using the Cheng-Prusoff equation. KD was determined from the Scatchard plot. (Editor-in-chief: Enna, S. J. and Williams, M. Current protocols in pharmacology vol. 1. John Wiley & sons Inc., 1998)

[2] = biological target: T2, recombinant human B1 receptors (Homo sapiens, UniProt P46663); assay: Functional assay: antagonist potency by cytosolic calcium measurement (plate reader fluorimeter) in CHO-B1 cells, agonist LysDABK; format: cell-based; settings: CHO-B1 cells, inhibition of LysDABK (EC80)-evoked [Ca2+]i elevation; read-out: B1 func.
T2 construct: host or cells: CHO (CHO-B1)
T2 sequence (P46663 1-353): T1 sequence (P46663 1-353)
Procedure: Assessment of Antagonist Potency at B1 Receptors In Vitro by Measurement of Cytosolic Calcium Ion Concentration with a Plate Reader Fluorimeter in Cells Expressing Recombinant Human B1 Receptors
Chinese hamster ovary (CHO) cells stably expressing recombinant human B1 (CHO-B1, Euroscreen) receptors were cultured in Dulbecco's Modified Eagle's Medium (DMEM) containing 10% Fetal Calf Serum (FCS), 100 U/ml penicillin, 0.1 mg/ml streptomycin, 0.25 μg/ml amphotericin B, 1% Minimum Essential Medium Eagle (MEM), non essential amino acid solution, 600 μg/ml G418. Cells were kept at 37° C. in a humidified incubator in an atmosphere of 5% CO2/95% air and were passaged 1:4 three times a week. Cells were plated at 1.5−2.5×10^4 cell/well on standard 96-well microplates, measurements of cytosolic calcium ion concentration ([Ca^2+]i) were carried out 1-2 days after cell plating.
Measurements of [Ca^2+]i were carried out on CHO-B1 cells stably expressing human B1 receptors, respectively. Cells were grown in standard 96-well microplates and before the measurement were loaded with a fluorescent Ca^2+-sensitive dye, fluo-4/AM (2 μM): after removing the culture medium the dye was added to the cells (dissolved in assay buffer: 145 mM NaCl, 5 mM KCl, 2 mM MgCl2, 2 mM CaCl2, 10 mM HEPES, 20 mM D-glucose, 2 mM probenecid, 100 μl/well) and cells were incubated at 37° C. in a humidified incubator in an atmosphere of 5% CO2/95% air for 40-120 min. To stop dye loading cells were washed twice with assay buffer. After washing, various concentrations of the test compounds (diluted in extracellular medium from a DMSO stock solution, final DMSO concentration was <0.1%) or buffer were added to each well depending on the experimental setup. After incubation at 37° C. for 20-25 min. baseline and agonist-evoked changes of [Ca^2+]; were measured column by column with a plate reader fluorimeter (Fluoroskan Ascent, Labsystems). Excitation and detection of emission was carried out from the bottom of the plate. Filters used for Fluo-4: excitation filter 485 nm, emission filter 538 nm. The whole measurement process was performed at 37° C. and was controlled by custom software. Inhibitory potency of the test compounds was assessed by measuring the reduction in the agonist-evoked [Ca^2+]i-elevation in the presence of different concentrations of the compounds. The agonist was LysDABK for CHO-B1 cells. Agonist was applied at an EC80 concentration; the EC80-values were derived from daily determined dose-response curves. Fluorescence data were expressed as ΔF/F (fluorescence change normalized to baseline). All treatments on a single plate were measured in multiple wells. Data from all wells with the same treatment were averaged and the average values were used for analysis. Inhibitory potency of a compound at a single concentration point was expressed as percent inhibition of the control agonist response. Sigmoidal concentration-inhibition curves were fitted to the data (derived from at least three independent experiments) and IC50-values were determined as the concentration that produces half of the maximal inhibition caused by the compound.

Compound	Ki [1]	IC50 [2]
COc1ccc2c(c1)cc(-c1nc(C)no1)n2-c1ccc(CNC(=O)C2(NC(=O)c3cncc(C(F)(F)F)c3)CC2)cc1 [Example 79, N-(1-{4-[5-Methoxy-2-(3-methyl-[1,2,4]oxadiazol-5-yl)-indol-1-yl]-benzylcarbamoyl}-cyclopropyl)-5-trifluoromethyl-nicotinamide]	< 20 nM	< 20 nM
Cc1nc(-c2cc3cc(Cl)ccc3n2-c2ccc(CNC(=O)C3(NC(=O)CC(F)(F)F)CC3)cc2)no1 [Example 127, 1-(3,3,3-Trifluoro-propionylamino)-cyclopropanecarboxylic acid 4-[5-chloro-2-(5-methyl-[1,2,4]oxadiazol-3-yl)-indol-1-yl]-benzylamide]	< 20 nM	< 20 nM
Cn1nnc(-c2c(Cl)c3cc(Cl)ccc3n2-c2ccc(CNC(=O)C3(NC(=O)C(F)(F)F)CC3)cc2)n1 [Example 17, 1-(2,2,2-Trifluoro-acetylamino)-cyclopropanecarboxylic acid 4-[3,5-dichloro-2-(2-methyl-2H-tetrazol-5-yl)-indol-1-yl]-benzylamide]	< 20 nM	< 20 nM
COc1cc(C(=O)NC2(C(=O)NCc3ccc(-n4c(C#N)c(Cl)c5ccccc54)cc3)CC2)on1 [Example 39, 3-Methoxy-isoxazole-5-carboxylic acid {1-[4-(3-chloro-2-cyano-indol-1-yl)-benzyl-carbamoyl]-cyclopropyl}-amide]	< 20 nM	< 20 nM
Cc1nc(-c2c(Cl)c3ccccc3n2-c2ccc(CNC(=O)C3(NC(=O)c4cccnc4Cl)CC3)c(F)c2)no1 [Example 104, 2-Chloro-N-(1-{4-[3-chloro-2-(5-methyl-[1,2,4]oxadiazol-3-yl)-indol-1-yl]-2-fluoro-benzylcarbamoyl}-cyclopropyl)-nicotinamide]	< 20 nM	< 20 nM
COc1cc(C(=O)NC2(C(=O)NCc3ccc(-n4c(-c5nc(C)no5)c(Cl)c5ccccc54)cn3)CC2)on1 [Example 58, 3-Methoxy-isoxazole-5-carboxylic acid [1-({5-[3-chloro-2-(3-methyl-[1,2,4]oxadiazol-5-yl)-indol-1-yl]-pyridin-2-ylmethyl}-carbamoyl)-cyclopropyl]-amide]	< 20 nM	< 20 nM
Cn1nnc(-c2c(Cl)c3cc(Cl)ccc3n2-c2ccc(CNC(=O)C3(NC(=O)C(F)(F)F)CC3)c(F)c2)n1 [Example 22, 1-(2,2,2-Trifluoro-acetylamino)-cyclopropanecarboxylic acid 4-[3,5-dichloro-2-(2-methyl-2H-tetrazol-5-yl)-indol-1-yl]-2-fluoro-benzylamide]	< 20 nM	< 20 nM
CC(=O)NC(CO)C(=O)NC1(C(=O)NCc2ccc(-n3c(-c4noc(C)n4)c(Cl)c4ccccc43)cc2)CC1 (centres unmarked) [Example 151, 1-(2-Acetylamino-3-hydroxy-propionylamino)-cyclopropanecarboxylic acid 4-[3-chloro-2-(5-methyl-[1,2,4]oxadiazol-3-yl)-indol-1-yl]-benzylamide]	100 to 500 nM	100 to 500 nM
Cc1nc(-c2c(Cl)c3ccccc3n2-c2ccc(CNC(=O)C3(NC(=O)c4cccc(Br)n4)CC3)cc2)no1 [Example 157, 6-Bromo-pyridine-2-carboxylic acid (1-{4-[3-chloro-2-(5-methyl-[1,2,4]oxadiazol-3-yl)-indol-1-yl]-benzylcarbamoyl}-cyclopropyl)-amide]	< 20 nM	20 to 100 nM
COc1cc(C(=O)NC2(C(=O)NCc3ccc(-n4c(-c5noc(C)n5)cc5cc(Cl)ccc54)cc3)CC2)on1 [Example 53, 3-Methoxy-isoxazole-5-carboxylic acid (1-{4-[5-chloro-2-(5-methyl-[1,2,4]oxadiazol-3-yl)-indol-1-yl]-benzylcarbamoyl}-cyclopropyl)-amide]	< 20 nM	< 20 nM
Cc1nc(-c2c(Cl)c3ccccc3n2-c2ccc(CNC(=O)C3(NC(=O)C4CCC(=O)N4)CC3)cc2)no1 (centres unmarked) [Example 168, 5-Oxo-pyrrolidine-2-carboxylic acid (1-{4-[3-chloro-2-(5-methyl-[1,2,4]oxadiazol-3-yl)-indol-1-yl]-benzylcarbamoyl}-cyclopropyl)-amide]	< 20 nM	20 to 100 nM
Cc1nc(-c2c(Cl)c3ccccc3n2-c2ccc(CNC(=O)C3(NC(=O)C4CC4C)CC3)cc2)no1 (centres unmarked) [Example 138, 2-Methyl-cyclopropanecarboxylic acid (1-{4-[3-chloro-2-(5-methyl-[1,2,4]oxadiazol-3-yl)-indol-1-yl]-benzylcarbamoyl}-cyclopropyl)-amide]	< 20 nM	20 to 100 nM
COc1cc(C(=O)NC2(C(=O)NCc3ccc(-n4c(-c5noc(C)n5)c(Cl)c5ccccc54)cc3F)CC2)on1 [Example 192, 3-Methoxy-isoxazole-5-carboxylic acid (1-{4-[3-chloro-2-(5-methyl-[1,2,4]oxadiazol-3-yl)-indol-1-yl]-2-fluoro-benzylcarbamoyl}-cyclopropyl)-amide]	< 20 nM	< 20 nM
Cn1nnc(-c2c(Cl)c3ccccc3n2-c2ccc(CNC(=O)C3(NC(=O)c4ccnc(F)c4)CC3)cc2)n1 [Example 28, N-(1-{4-[3-chloro-2-(2-methyl-2H-tetrazol-5-yl)-indol-1-yl]-benzylcarbamoyl}-cyclopropyl)-2-fluoro-isonicotinamide]	< 20 nM	< 20 nM
Cc1nc(-c2c(Cl)c3ccccc3n2-c2ccc(CNC(=O)C3(NC(=O)c4ccnc(F)c4)CC3)cc2)no1 [Example 164, N-(1-{4-[3-Chloro-2-(5-methyl-[1,2,4]oxadiazol-3-yl)-indol-1-yl]-benzylcarbamoyl}-cyclopropyl)-2-fluoro-isonicotinamide]	< 20 nM	< 20 nM
COc1cc(C(=O)NC2(C(=O)NCc3ccc(-n4c(-c5noc(C)n5)c(Cl)c5cc(F)ccc54)cn3)CC2)on1 [Example 62, 3-Methoxy-isoxazole-5-carboxylic acid [1-({5-[3-chloro-5-fluoro-2-(5-methyl-[1,2,4]oxadiazol-3-yl)-indol-1-yl]-pyridin-2-ylmethyl}-carbamoyl)-cyclopropyl]-amide]	< 20 nM	< 20 nM
